The numbers were not newly measured in patent publication US20090233914A1, “Composition for treatment of nail infections” (Ondine International, Ltd., priority 2008, published 2009), which cites them from elsewhere.

For the series, the system named is onychomycosis. Conditions: for side effects: human, in vivo, po.

Take `CCC(C)n1ncn(-c2ccc(N3CCN(c4ccc(OCC5COC(Cn6cncn6)(c6ccc(Cl)cc6Cl)O5)cc4)CC3)cc2)c1=O` (centres unmarked) [itraconazole]: the side effects entry was “somewhat severe”. For `COC1=CC(=O)C[C@@H](C)[C@]12Oc1c(Cl)c(OC)cc(OC)c1C2=O` [Griseofulvin], the side effects entry is recorded as “undesired side effects”. For the same molecule, under “oral medicine”, the “effectiveness of treatment of onychomycosis” value was “largely ineffectual”. On to `OC(Cn1cncn1)(Cn1cncn1)c1ccc(F)cc1F` [Fluconazole], for which the side effects result is on record as “severe side effects”.

As to `CN(C/C=C/C#CC(C)(C)C)Cc1cccc2ccccc12` [Lamisil, terbinafine], the “nail clearing in patients for one year” value (oral, once a day for 90 days) is 70-80 % of patients.
